Reference: patent US6469058B1 (priority 1998, dated 2002)
“And” between values parts separate entries of the source, which are not always exact repeats. Equal values may be shown once. Read-outs that look alike come from different tables or passages of the source.

Key:
[1] = system: LC-12 squamous cell lung carcinoma tumor; conditions: for % Weight Change / CR / Net Log10 Kill / PR / T − C / Toxic Deaths: days 11-15, 18-22, 25-29; for day on which significant tumor growth commenced (FIG. 1): controls Day 10
[2] = human, in vivo
clinical = conditions: human, in vivo, po
[3] = Phase 1 study of CI-994 in relapsed acute leukemia or other hematologic malignancy; type: in vivo
Procedure: An additional Phase 1 study was conducted in patients with relapsed acute leukemia or other hematologic malignancy using a once daily high-dose 5-day dosing schedule. The MTD was 135 mg/m^2/day. […] Other adverse events included nausea, vomiting, hypotension resulting from dehydration, hypocalcemia, headache, and in one patient each, acute pancreatitis, a pyramidal syndrome characterized by hyperreflexia and bilateral Babinski reflexes, and sepsis. Hematologic toxicities cannot be assessed in this patient population. Two patients with AML developed tumor lysis syndrome, resulting in one death. Transient decreases in peripheral white blood cell counts were noted.

[4] = Route of elimination, radiolabeled drug in urine, monkeys; type: in vivo; conditions: within 24 hours
Procedure: (§1) Mass balance/route of elimination studies have not been conducted in humans. Animal studies indicate that the principal route of elimination is via renal excretion, with 80% and 62% of radiolabeled drug appearing in the urine of monkeys and rats, respectively, within 24 hours.

[5] = Route of elimination, radiolabeled drug in urine, rats; type: in vivo; conditions: within 24 hours
Procedure: as §1

[6] = Phase 1 dose-escalation study of CI-994 in solid tumor patients (MTD, pharmacokinetics, food effect)
[7] = Table 2 study, CI-994 7.5 mg/kg/day alone
[8] = Table 2 study, CI-994 15 mg/kg/day alone
[9] = Table 2 study, CI-994 30 mg/kg/day alone
[10] = Table 2 study, CI-994 60 mg/kg/day alone
[11] = CI-994 7.5 mg/kg/day alone, days 3-7, 10-14, 17-21
[12] = CI-994 7.5 mg/kg/day alone, days 17-21, 24-28, 31-35
[13] = CI-994 15 mg/kg/day alone, days 3-7, 10-14, 17-21
[14] = CI-994 15 mg/kg/day alone, days 17-21, 24-28, 31-35
[15] = CI-994 30 mg/kg/day alone, days 3-7, 10-14, 17-21
[16] = CI-994 30 mg/kg/day alone, days 17-21, 24-28, 31-35
[17] = CI-994 60 mg/kg/day alone, days 3-7, 10-14, 17-21
[18] = CI-994 60 mg/kg/day alone, days 17-21, 24-28, 31-35

## CC(=O)Nc1ccc(C(=O)Nc2ccccc2N)cc1 [CI-994, 4-acetylamino-N-(2′-aminophenyl)-benzamide]
[1]; CI-994 7.5 mg/kg/day alone
  % Weight Change: +4%
  CR: 1/6
  Net Log10 Kill: −1.2
  PR: 0/6
  T − C: 2.4 days
  Toxic Deaths: 0/6
[1]; CI-994 15 mg/kg/day alone
  % Weight Change: +10%
  CR: 0/6
  Net Log10 Kill: −1.4
  PR: 0/6
  T − C: 0.4 days
  Toxic Deaths: 0/6
[1]; CI-994 30 mg/kg/day alone
  % Weight Change: +1%
  CR: 0/6
  Net Log10 Kill: −1.3
  PR: 0/6
  T − C: 1.6 days
  Toxic Deaths: 0/6
[1]; CI-994 60 mg/kg/day alone
  % Weight Change: −9%
  CR: 3/6
  Net Log10 Kill: −0.8
  PR: 0/6
  T − C: 7.8 days
  Toxic Deaths: 0/6
[1]; [7]
  % Weight Change: +9%
  CR: 0/10
  Net Log10 Kill: 0
  PR: 0/10
  T − C: -1.4 days
  Toxic Deaths: 0/10
[1]; [8]
  % Weight Change: +11%
  CR: 0/10
  Net Log10 Kill: 0
  PR: 0/10
  T − C: -1.9 days
  Toxic Deaths: 0/10
[1]; [9]
  % Weight Change: +11%
  CR: 0/10
  Net Log10 Kill: −0.8
  PR: 0/10
  T − C: 4.3 days
  Toxic Deaths: 0/10
[1]; [10]
  % Weight Change: +11%
  Net Log10 Kill: −0.5
  PR: 0/10
  T − C: 8.7 days
  Toxic Deaths: 0/10
[1]; Table 2 study, CI-994 60 mg/kg/day alone, 60 mg/kg/day
  CR: two complete responses out of 10 and 2/10
[1]; oral 30 mg/kg, Days 10-14, 17-21, 24-28
  day on which significant tumor growth commenced (FIG. 1): ~24 days
[1]; oral 45 mg/kg, Days 10-14, 17-21, 24-28
  day on which significant tumor growth commenced (FIG. 1): ~24 days
[1]; oral 60 mg/kg, Days 10-14, 17-21, 24-28
  tumor growth delayed for (FIG. 1): 33 days
[2]
  cumulative toxicity: no evidence of cumulative toxicity
  dose-limiting toxicity: thrombocytopenia or neutropenia
[2]; po
  maximum plasma concentrations with increasing dose levels: less than dose-proportional
  terminal elimination half-life and apparent clearance rate vs dose: independent of the dose administered
  time to maximum blood level after ingestion: 1 to 2 h
clinical
  half-life: ~15 h
[3]; in vivo
  dose-limiting toxicity: acute CNS toxicity manifested as sedation and somnolence
[3]; patients with relapsed acute leukemia or other hematologic malignancy, once daily high-dose 5-day dosing schedule
  MTD: 135 mg/m^2/day
Phase 2, 8 mg/m^2 orally daily
  Clinical benefit: Clinical benefit has been reported in patients with renal cell cancer
  Objective responses: Objective responses have been seen in patients with nonsmall cell lung cancer
In vivo, po
  dose-limiting toxicity: Thrombocytopenia
[4]
  radiolabeled drug appearing in the urine: 80%
[5]
  radiolabeled drug appearing in the urine: 62%
C26 colon tumor; [11]
  % Tumor free: 0/10
  Net Log10 Kill: −2.2
  T − C: 1.6 days
  Toxic Deaths: 0/10
C26 colon tumor; [12]
  % Tumor free: 0/10
  Net Log10 Kill: −1.3
  T − C: 3.1 days
  Toxic Deaths: 0/10
C26 colon tumor; [13]
  % Tumor free: 0/9
  Net Log10 Kill: −2.3
  T − C: 1.0 days
  Toxic Deaths: 0/9
C26 colon tumor; [14]
  % Tumor free: 0/10
  Net Log10 Kill: −1.0
  T − C: 6.7 days
  Toxic Deaths: 0/10
C26 colon tumor; [15]
  % Tumor free: 0/9
  Net Log10 Kill: −1.8
  T − C: 4.6 days
  Toxic Deaths: 0/9
C26 colon tumor; [16]
  % Tumor free: 0/10
  Net Log10 Kill: −0.8
  T − C: 8.4 days
  Toxic Deaths: 1/10
C26 colon tumor; [17]
  % Tumor free: 0/9
  Net Log10 Kill: −1.8
  T − C: 4.8 days
  Toxic Deaths: 0/9
C26 colon tumor; [18]
  % Tumor free: 0/10
  Net Log10 Kill: −0.7
  T − C: 10.1 days
  Toxic Deaths: 0/10
[6]; 8 weeks of continuous daily therapy followed by a 2-week drug holiday
  MTD: 8 mg/m^2/day
[6]; dose-escalation study
  Responses: one partial response in a heavily pretreated patient with NSCLC and a minor response in one patient each with renal cell cancer and NSCLC
[6]; duration of treatment 14 consecutive days
  maximum tolerated dose (MTD): 15 mg/m^2/day
